Measured values from US8906432B2, “Compositions comprising an NFκB-inhibitor and a non-retinoid collagen promoter” (Johnson & Johnson Consumer Companies, Inc., priority 2009, dated 2014).

How the values were obtained:
Collagen 1A promoter = assay: COLLAGEN PROMOTER ASSAY (Collagen 1A promoter-luciferase reporter in H9C2 cells); type: cell-based, rat; conditions: 1 ug/ml of each active (on active basis), transfected H9C2 cells, 24 hours; for Percent Change Over Vehicle (collagen promotion): vehicle DMSO 0.01%
Experimental: Suitable non-retinoid collagen promoters may be determined, for example, using the COLLAGEN PROMOTER ASSAY. The COLLAGEN PROMOTER ASSAY is performed as follows. Rat cardiac myoblasts H9C2, which may be purchased from ATCC (Manassas, Va.), are used. Cultures are maintained in Dulbecco's modified Eagle's medium (DMEM, Invitrogen Life Technologies, Carlsbad, Calif.) supplemented with 10% fetal bovine serum, 2 mM glutamine, 100 units/ml penicillin, and 50 ug/ml streptomycin (Invitrogen life technologies, Carlsbad, Calif.). Cell cultures are transiently transfected with the Collagen 1A promoter-luciferase reporter construct, driving the firefly luciferase gene, which may obtained for example from PREMAS Biotech Pvt. Ltd (Haryana, India). In all transfections, a construct with the thymidine kinase promoter and the Renilla luciferase reporter gene (pRL-TK, Promega, Madison, Wis.) is included as an internal control. Cells grown in 48-well plates are transfected with 0.45 ug total DNA per well using Lipofectamine 2000 (Invitrogen life technologies, Carlsbad, Calif.). One day after transfection, cells are treated with agents at the indicated concentrations for approximately 24 hours before they are lysed for luciferase assays, using Dual-Luciferase Reporter System from Promega (Madison, Wis.), following manufacturer's protocol. The firefly luciferase activity is measured first (representing collagen promoter activity), followed by the renilla luciferase (internal control), using luminometer LMAX, from Molecular Devices (Sunnyvale, Calif.). The ratio of these two luciferase activities (RLU) is used to evaluate the activity of each promoter.
The COLLAGEN PROMOTER ASSAY was performed on the following compounds: Tanacetum parthenium (parthenolide-free feverfew extract from Integrated Botanical Technologies of Ossining, N.Y.) and 4-hexylresorcinol (Synovea HR, from Sytheon Ltd). The compounds were diluted in cell culture media (DMEM Media of Invitrogen, San Diego Calif.) to the concentration of “active” extract as indicated in Table 3 below. […]

NFκB = assay: NFκB-INHIBITION TEST (NF-kB gene reporter, TNFα-stimulated FB293 cells, luciferase); type: cell-based; conditions: Homo sapiens, 24 h; series of substituted resorcinols, each 10 ug/ml (Table 2); read-out: Percent NF-kB Inhibition
Experimental: The NFκB-INHIBITION TEST is conducted in the following manner. FB293 cells, a stable transfected human epithelial cell line containing the gene reporter for NF-kB are used. They may be obtained from, e.g., Panomics (Fremont, Calif.). FB293 are plated at a density of 5×10^4 cells/mL in a suitable medium, e.g., Dulbecco's modified Eagle's medium (DMEM) supplemented with 10% fetal bovine serum (Invitrogen, San Diego, Calif.). The FB293 cells are stimulated with 100 ng/mL of Tumor Necrosis Factor-α(TNFα, available from Sigma-Aldrich of St Louis, Mo.) in the presence of the test sample. Separately, a control sample is tested wherein no test sample is applied. Following a 24-hour incubation at 37° C. with 5% CO2, cells are lysed with 40 μl of reporter lysis buffer (Promega, Madison, Wis.). A […] aliquot of the lysate is assayed using a luciferase assay kit (Promega) and counted for 10 s in a Lmax luminometer (Molecular Devices, Sunnyvale, Calif.) with the data represented as the relative light unit/second. Percent NFκB Inhibition of the test sample is calculated as: NFκB Inhibition=[1−(Lsample/Lcontrol)]*100 where Lsample is the luminescence of the sample and Lcontrol is the luminescence of the control. […]

Compound	Percent Change Over Vehicle (collagen promotion) (Collagen 1A promoter) [%]	Percent Change Over Vehicle (collagen promotion) (Collagen 1A promoter; listed as 4-hexylresorcinol) [%]	Collagen 1A Promoter Activity (Collagen 1A promoter; vehicle control = 1.00)	inhibition at 10 µg/mL (NFκB) [%]
CCCCCCc1ccc(O)cc1O [4-Hexylresorcinol]	−3	−3	0.97 ± 0.17	–
CCCCCCCCCCCC1c2cc(c(O)cc2O)C(CCCCCCCCCCC)c2cc(c(O)cc2O)[C@H](CCCCCCCCCCC)c2cc(c(O)cc2O)[C@H](CCCCCCCCCCC)c2cc1c(O)cc2O (stereo partly shown) [C-Undecylcalix[4]-resorcinarene]	–	–	–	4.87
